Assay results taken from ChEMBL document CHEMBL1201862, “PubChem BioAssay data set” (2004).
Active and inactive are the calls of the source.

Key:
[1] = NIH-3T3 fibroblast cytotoxicity, dose response, cytotoxicity control, cell-based, fluorescence, Alamar Blue, secondary assay (AID 2327); assay type: functional;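 further: NIH-3T3 mouse fibroblasts cultured with fluconazole at 8 µg/mL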
[2] = target: T1, Serine/threonine-protein phosphatase (Candida dubliniensis (strain CD36 / CBS 7987 / NCPF 3949 / NRRLY-17841) (Yeast), UniProt B9W6M3); assay: blockers of CaCl2-induced CDRE-lacZ signaling – S. cerevisiae, luminescence, secondary, dose response (AID 2388); assay type: functional, cell-based;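 further: yeast reporter cells carrying a calcineurin-responsive lacZ construct stimulated with calcium chloride; luminescent beta-galactosidase reporter signal in whole cells rather than isolated phosphatase activity; potency for inhibition where a drop in reporter signal means calcineurin blockade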
T1 sequence (B9W6M3 whole entry): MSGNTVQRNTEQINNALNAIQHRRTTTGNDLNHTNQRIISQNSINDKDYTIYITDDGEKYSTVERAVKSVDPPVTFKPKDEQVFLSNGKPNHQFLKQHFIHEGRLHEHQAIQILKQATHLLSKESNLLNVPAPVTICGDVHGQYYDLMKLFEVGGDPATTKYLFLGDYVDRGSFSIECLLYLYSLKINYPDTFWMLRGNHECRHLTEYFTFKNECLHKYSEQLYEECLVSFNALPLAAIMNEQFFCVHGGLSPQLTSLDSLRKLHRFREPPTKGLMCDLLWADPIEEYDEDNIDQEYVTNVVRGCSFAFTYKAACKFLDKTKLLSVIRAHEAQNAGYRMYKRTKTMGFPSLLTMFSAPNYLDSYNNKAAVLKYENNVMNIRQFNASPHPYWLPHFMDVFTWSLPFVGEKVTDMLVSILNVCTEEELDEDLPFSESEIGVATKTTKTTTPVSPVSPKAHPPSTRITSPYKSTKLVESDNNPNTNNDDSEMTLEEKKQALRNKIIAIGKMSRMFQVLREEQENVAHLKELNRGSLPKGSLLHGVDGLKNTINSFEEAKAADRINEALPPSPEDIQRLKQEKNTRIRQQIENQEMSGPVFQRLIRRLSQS

[3] = fluconazole-exposed Candida albicans growth modulators – fluorescence, retest, confirmation (AID 2467); assay type: functional, cell-based
[4] = target: ATP-dependent molecular chaperone HSP82 (Candida albicans (strain WO-1) (Yeast), UniProt C4YTQ8); assay: steroid-induced GRE reporter decrease in yeast – S. cerevisiae, luminescence, Hsp90 inhibitor project, dose response (AID 2400); assay type: functional, cell-based;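 further: beta-galactosidase luminescence from glucocorticoid response element reporter as proxy for Hsp90 function; inhibitor potency where signal loss means Hsp90 inhibition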
[5] = cells
[6] = viability of uninfected HEp-2 cells – cell-based, HTS, cytotoxicity control for RSV inhibitor project, dose response (AID 2410); assay type: functional; settings: human respiratory syncytial virus
[7] = test system: Vero; assay: cells; assay type: functional, cell-based; settings: Chlorocebus sabaeus
[8] = luciferase reporter signal suppression in cells – H4 neuroglioma cells, luminescence, dose response (AID 1990); assay type: functional, cell-based
[9] = test system: Vero; assay: cells; assay type: functional; settings: Chlorocebus sabaeus
[10] = target: T2, Ubiquitin-conjugating enzyme E2 N (Homo sapiens, UniProt P61088); assay type: functional;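 further: Dose-response confirmation in a TR-FRET assay detecting UBC13-driven polyubiquitin chain formation, inhibition measured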
T2 sequence (P61088 whole entry): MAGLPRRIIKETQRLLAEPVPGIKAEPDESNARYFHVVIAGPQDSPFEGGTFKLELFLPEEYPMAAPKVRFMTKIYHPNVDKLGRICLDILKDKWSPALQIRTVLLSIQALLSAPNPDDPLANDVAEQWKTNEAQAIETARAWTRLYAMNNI

[11] = alpha-synuclein stem-loop luciferase translation blockers – H4 neuroglioma cells, luminescence, confirmation (AID 1988); assay type: functional, cell-based
[12] = Luminescence Cell-Based Dose Response HTS to Identify Inhibitors of 5'UTR Stem-Loop Driven Prion Protein mRNA Translation in H4 Neuroglioblastoma Cells. [Related pubchem assays: 1827 (Project Summary), 1813 (Primary HTS)]; assay type: functional
[13] = test system: H4; assay: Inhibitors of Prion Protein 5' UTR mRNA Measured in Cell-Based System Using Plate Reader - 2078-01_Inhibitor_Dose_DryPowder_Activity. [Related pubchem assays (depositor defined):AID488894]; assay type: functional; settings: Homo sapiens
[14] = HEK-293T viability loss after treatment – luminescence, T-cell screen hits, cytotoxicity control for TCR NF-kB inhibitor project, dose response (AID 489026); assay type: functional, cell-based;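 further: cells exposed to compound about 14 hours before the viability readout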

Sequence of ATP-dependent molecular chaperone HSP82 (C4YTQ8 whole entry): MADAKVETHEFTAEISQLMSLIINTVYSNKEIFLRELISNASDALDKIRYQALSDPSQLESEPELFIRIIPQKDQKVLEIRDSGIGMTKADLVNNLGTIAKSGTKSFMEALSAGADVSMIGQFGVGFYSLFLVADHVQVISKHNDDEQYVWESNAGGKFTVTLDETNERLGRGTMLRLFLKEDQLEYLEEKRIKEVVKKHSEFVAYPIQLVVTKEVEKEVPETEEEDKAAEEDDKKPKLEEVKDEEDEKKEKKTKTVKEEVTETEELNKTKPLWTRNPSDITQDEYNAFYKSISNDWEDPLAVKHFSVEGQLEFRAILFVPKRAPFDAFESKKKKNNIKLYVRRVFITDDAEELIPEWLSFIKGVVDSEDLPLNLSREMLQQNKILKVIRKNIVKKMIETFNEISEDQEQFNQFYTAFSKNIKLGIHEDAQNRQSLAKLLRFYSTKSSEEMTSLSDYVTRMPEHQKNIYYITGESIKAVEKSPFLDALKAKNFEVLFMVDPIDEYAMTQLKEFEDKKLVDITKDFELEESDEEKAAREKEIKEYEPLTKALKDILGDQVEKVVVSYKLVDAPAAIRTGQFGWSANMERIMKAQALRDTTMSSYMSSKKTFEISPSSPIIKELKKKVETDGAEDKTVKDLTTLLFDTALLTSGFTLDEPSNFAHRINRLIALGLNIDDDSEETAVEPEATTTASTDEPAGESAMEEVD

Structure (SMILES)	EC50 [1]	EC50 [2]	EC50 [3]	EC50 [4]	IC50 [7]	further results
O=C(Nc1nnc(SCc2ccc(Cl)cc2)s1)c1cnccn1	> 160 µM (inactive)	> 180 µM (inactive)	0.57 µM (active)	24.4 µM (active)	–	–
O=C(Cc1c[nH]c2ccccc12)Nc1nnc(C2CC2)s1	–	–	–	–	16.6 µM (active)	IC50 [5]: 39.1 µM (active); CC50 [6]: 21.6 µM (active)
CCCOc1ccc(C(=O)NNC(=S)NC(C)=O)cc1	> 160 µM (inactive)	> 180 µM (inactive)	0.372 µM (active)	> 160 µM (inactive)	23.6 µM (active)	EC50 [8]: 14.2 µM (active); CC50 [9]: > 25 µM (active); IC50 [10]: > 20 µM (inactive); EC50 [11]: 9.77 µM (active); EC50 [12]: 14.2 µM (active)
C=CCn1c(SCc2c(C)noc2C)nc2ccccc2c1=O	–	–	–	–	–	AC50 [13]: 0.574 µM (active); IC50 [14]: > 80 µM (inactive)
O=c1oc(C2(O)CCCCC2)cc2ccc(-c3ccc4[nH]ccc4c3)cc12	–	–	–	–	1.11 µM (active)	–
